Data taken from patent publication US4746729A, “Cartilage-derived leukocyte elastase-inhibitor” (priority 1986, dated 1988).

Tested on: PMN-Elastase
Experiment: PMN-Elastase inhibition assay with chromogenic substrate
Format: biochemical, human
Settings: substrate methoxysuccinyl-Ala-Ala-Pro-Val-p-nitroanilide, 405 nm absorption, semiquantitative
Protocol: PMN-Elastase was isolated and purified from human neutrophile as depicted in Recent Advances In Connective Tissue Research, 1986, Bukhauser Verlag, Basel, Boston, Stuttgart, C. Arsenis, E. S.-M. A. Thomar, and K. E. Kuettner, pages 63-68, incorporated herein by reference. It has essentially no cathepsin-G activity. The enzyme was tested against its natural substrates, such as type IV collagen, insoluble amorphous elastin, and against the specific synthetic substrate Methoxysuccinyl-L-Alanyl-L-Alanyl-L-Prolyl-L-Valyl-p-nitro-anilide, from which a DMSO stock solution was made. See The Journal of Bioloqical Chemistry, Vol. 254, pp. 4027-4032, 1979, K. Nakajima, J. C. Powers, B. M. Ashe, and M. Zimmerman, incorporated herein by reference. Aliquots were diluted with assay buffer for each measurement.
30 microliters (2.5-15 micrograms protein/ml) of PMN-Elastase was poured into a 96 well-plate, and 70 microliters of sample were added and incubated for 30 minutes at 30° C. After addition of 100 microliters substrate solution (methoxy-succinyl-L-Alanyl-L-Alanyl-L-Prolyl-L-Valyl-p-nitroanilide) in DMSO, dilution to 3 mM was effected with a buffer solution of 20 mM Tris and 500 mM NaCl at pH 7.3 (final DMSO concentration 10%). […] By varying the enzyme quantities, semiquantitative relationships were obtained.

Substance: serum albumin: 68 KD blood contaminant in the high molecular weight fraction of the cartilage extract
- PMN-Elastase inhibitory activity: inhibit the PMN-Elastase to a certain extent
